In ChEMBL document CHEMBL4177670, “Potential antimicrobial agents from triazole-functionalized 2H-benzo[b][1,4]oxazin-3(4H)-ones” (2017):
In brackets after ≈: the same amount, converted by molar mass.

Assays:
Escherichia coli [1] = assay: Antibacterial activity against Escherichia coli MTCC 739 after 24 hrs by agar well diffusion method; type: functional; settings: MTCC 739, 24 h
Escherichia coli [2] = assay: Bactericidal activity against Escherichia coli MTCC 739 measured after 24 hrs; type: functional; settings: MTCC 739, 24 h
Staphylococcus aureus [3] = assay: Bactericidal activity against Staphylococcus aureus MLS-16 MTCC 2940 measured after 24 hrs; type: functional; settings: MLS-16 MTCC 2940, 24 h
Staphylococcus aureus [4] = assay: Antibacterial activity against Staphylococcus aureus MLS-16 MTCC 2940 after 24 hrs by agar well diffusion method; type: functional; settings: MLS-16 MTCC 2940, 24 h
Candida albicans [5] = assay: Fungicidal activity against Candida albicans MTCC 3017 measured after 24 hrs; type: functional; settings: MTCC 3017, 24 h
Candida albicans [6] = assay: Antifungal activity against Candida albicans MTCC 3017; type: functional
Raoultella planticola [7] = assay: Bactericidal activity against Klebsiella planticola MTCC 530 measured after 24 hrs; type: functional; settings: MTCC 530, 24 h
Raoultella planticola [8] = assay: Antibacterial activity against Klebsiella planticola MTCC 530 after 24 hrs by agar well diffusion method; type: functional; settings: MTCC 530, 24 h
Bacillus subtilis [9] = assay: Antibacterial activity against Bacillus subtilis MTCC 121 after 24 hrs by agar well diffusion method; type: functional; settings: MTCC 121, 24 h
Staphylococcus aureus [10] = assay: Antibacterial activity against Staphylococcus aureus MTCC 96 after 24 hrs by agar well diffusion method; type: functional; settings: MTCC 96, 24 h
Bacillus subtilis [11] = assay: Bactericidal activity against Bacillus subtilis MTCC 121 measured after 24 hrs; type: functional; settings: MTCC 121, 24 h
Micrococcus luteus [12] = assay: Antibacterial activity against Micrococcus luteus MTCC 2470 after 24 hrs by agar well diffusion method; type: functional; settings: MTCC 2470, 24 h
Micrococcus luteus [13] = assay: Bactericidal activity against Micrococcus luteus MTCC 2470 measured after 24 hrs; type: functional; settings: MTCC 2470, 24 h
Staphylococcus aureus [14] = assay: Bactericidal activity against Staphylococcus aureus MTCC 96 measured after 24 hrs; type: functional; settings: MTCC 96, 24 h
Pseudomonas aeruginosa = assay: microbe, parasite or virus in culture; settings: MTCC 2453, 24 h
Description: Bactericidal activity against Pseudomonas aeruginosa MTCC 2453 measured after 24 hrs

SMILES | MIC (Escherichia coli [1]) | MIC (Staphylococcus aureus [4]) | MIC (Candida albicans [6]) | MIC (Bacillus subtilis [9]) | MIC (Staphylococcus aureus [10]) | MIC (Micrococcus luteus [12]) | MBC (Escherichia coli [2]) | MBC (Staphylococcus aureus [3]) | MFC (Candida albicans [5]) | MBC (Raoultella planticola [7]) | MIC (Raoultella planticola [8]) | MBC (Bacillus subtilis [11]) | MBC (Micrococcus luteus [13]) | MBC (Staphylococcus aureus [14]) | MBC (Pseudomonas aeruginosa)
O=C1COc2ccccc2N1Cc1cn(Cc2ccccc2)nn1 | 3.9 µg/mL (≈ 12.2 µM) | 1.9 µg/mL (≈ 5.93 µM) |  |  |  |  | 7.8 µg/mL (≈ 24.3 µM) | 3.9 µg/mL (≈ 12.2 µM) |  |  |  |  |  |  | 
Clc1ccc(COC(Cn2ccnc2)c2ccc(Cl)cc2Cl)c(Cl)c1 (centres undefined) [MICONAZOLE] |  |  | 7.8 µg/mL (≈ 18.7 µM) |  |  |  |  |  | 7.8 µg/mL (≈ 18.7 µM) |  |  |  |  |  | 
Cc1ccc(-n2cc(CN3C(=O)COc4ccccc43)nn2)cc1 | 3.9 µg/mL (≈ 12.2 µM) | 3.9 µg/mL (≈ 12.2 µM) | 7.8 µg/mL (≈ 24.3 µM) |  |  |  | 7.8 µg/mL (≈ 24.3 µM) | 7.8 µg/mL (≈ 24.3 µM) | 15.6 µg/mL (≈ 48.7 µM) | 7.8 µg/mL (≈ 24.3 µM) | 3.9 µg/mL (≈ 12.2 µM) |  |  |  | 
O=C(O)c1cn(C2CC2)c2cc(N3CCNCC3)c(F)cc2c1=O [CIPROFLOXACIN] | 0.9 µg/mL (≈ 2.72 µM) | 0.9 µg/mL (≈ 2.72 µM) |  | 0.9 µg/mL (≈ 2.72 µM) | 0.9 µg/mL (≈ 2.72 µM) | 0.9 µg/mL (≈ 2.72 µM) | 0.9 µg/mL (≈ 2.72 µM) | 0.9 µg/mL (≈ 2.72 µM) |  | 0.9 µg/mL (≈ 2.72 µM) | 0.9 µg/mL (≈ 2.72 µM) | 0.9 µg/mL (≈ 2.72 µM) | 0.9 µg/mL (≈ 2.72 µM) | 0.9 µg/mL (≈ 2.72 µM) | 0.9 µg/mL (≈ 2.72 µM)
Cc1ccccc1-n1cc(CN2C(=O)COc3ccccc32)nn1 | 3.9 µg/mL (≈ 12.2 µM) | 3.9 µg/mL (≈ 12.2 µM) | 7.8 µg/mL (≈ 24.3 µM) |  |  |  | 7.8 µg/mL (≈ 24.3 µM) | 7.8 µg/mL (≈ 24.3 µM) | 15.6 µg/mL (≈ 48.7 µM) | 7.8 µg/mL (≈ 24.3 µM) | 3.9 µg/mL (≈ 12.2 µM) |  |  |  | 
O=C1COc2ccc(Cl)cc2N1Cc1cn(Cc2ccccc2)nn1 |  |  | 7.8 µg/mL (≈ 22 µM) |  |  |  |  |  | 15.6 µg/mL (≈ 44 µM) |  |  |  |  |  | 
O=C1COc2ccccc2N1Cc1cn(-c2ccc([N+](=O)[O-])cc2)nn1 |  |  | 15.6 µg/mL (≈ 44.4 µM) |  |  |  |  |  | 31.2 µg/mL (≈ 88.8 µM) |  |  |  |  |  | 
O=C1COc2ccccc2N1Cc1cn(-c2ccc(F)cc2)nn1 | 7.8 µg/mL (≈ 24.1 µM) |  | 3.9 µg/mL (≈ 12 µM) |  |  |  | 15.6 µg/mL (≈ 48.1 µM) |  | 7.8 µg/mL (≈ 24.1 µM) |  |  |  |  |  | 
O=C1COc2ccccc2N1Cc1cn(-c2ccccc2)nn1 |  |  |  |  | 3.9 µg/mL (≈ 12.7 µM) |  |  |  |  | 7.8 µg/mL (≈ 25.5 µM) | 3.9 µg/mL (≈ 12.7 µM) |  |  | 7.8 µg/mL (≈ 25.5 µM) | 

Second part, led by results:

MIC (Escherichia coli [1]) | MIC (Staphylococcus aureus [4]) | MIC (Candida albicans [6]) | MIC (Bacillus subtilis [9]) | MIC (Staphylococcus aureus [10]) | MIC (Micrococcus luteus [12]) | SMILES | MBC (Escherichia coli [2]) | MBC (Staphylococcus aureus [3]) | MFC (Candida albicans [5]) | MBC (Raoultella planticola [7]) | MIC (Raoultella planticola [8]) | MBC (Bacillus subtilis [11]) | MBC (Micrococcus luteus [13]) | MBC (Staphylococcus aureus [14]) | MBC (Pseudomonas aeruginosa)
7.8 µg/mL (≈ 23.2 µM) |  | 3.9 µg/mL (≈ 11.6 µM) |  |  |  | COc1ccc(-n2cc(CN3C(=O)COc4ccccc43)nn2)cc1 | 15.6 µg/mL (≈ 46.4 µM) |  | 7.8 µg/mL (≈ 23.2 µM) |  |  |  |  |  | 
 |  | 7.8 µg/mL (≈ 22.9 µM) |  |  |  | O=C1COc2ccccc2N1Cc1cn(-c2ccc(Cl)cc2)nn1 |  |  | 15.6 µg/mL (≈ 45.8 µM) |  |  |  |  |  | 
 |  | 7.8 µg/mL (≈ 20.2 µM) |  |  |  | O=C1COc2ccc(Cl)cc2N1Cc1cn(-c2ccc([N+](=O)[O-])cc2)nn1 |  |  | 15.6 µg/mL (≈ 40.4 µM) |  |  |  |  |  | 
3.9 µg/mL (≈ 11 µM) | 1.9 µg/mL (≈ 5.36 µM) | 7.8 µg/mL (≈ 22 µM) | 1.9 µg/mL (≈ 5.36 µM) | 1.9 µg/mL (≈ 5.36 µM) | 1.9 µg/mL (≈ 5.36 µM) | Cc1ccccc1-n1cc(CN2C(=O)COc3ccc(Cl)cc32)nn1 | 7.8 µg/mL (≈ 22 µM) | 3.9 µg/mL (≈ 11 µM) | 15.6 µg/mL (≈ 44 µM) | 7.8 µg/mL (≈ 22 µM) | 3.9 µg/mL (≈ 11 µM) | 3.9 µg/mL (≈ 11 µM) | 3.9 µg/mL (≈ 11 µM) | 3.9 µg/mL (≈ 11 µM) | 
3.9 µg/mL (≈ 10.9 µM) | 1.9 µg/mL (≈ 5.3 µM) | 7.8 µg/mL (≈ 21.7 µM) | 1.9 µg/mL (≈ 5.3 µM) | 3.9 µg/mL (≈ 10.9 µM) | 1.9 µg/mL (≈ 5.3 µM) | O=C1COc2ccc(Cl)cc2N1Cc1cn(-c2ccc(F)cc2)nn1 | 7.8 µg/mL (≈ 21.7 µM) | 3.9 µg/mL (≈ 10.9 µM) | 15.6 µg/mL (≈ 43.5 µM) | 7.8 µg/mL (≈ 21.7 µM) | 3.9 µg/mL (≈ 10.9 µM) | 3.9 µg/mL (≈ 10.9 µM) | 3.9 µg/mL (≈ 10.9 µM) | 7.8 µg/mL (≈ 21.7 µM) | 
 | 1.9 µg/mL (≈ 5.12 µM) | 7.8 µg/mL (≈ 21 µM) |  |  |  | COc1ccc(-n2cc(CN3C(=O)COc4ccc(Cl)cc43)nn2)cc1 |  | 3.9 µg/mL (≈ 10.5 µM) | 15.6 µg/mL (≈ 42.1 µM) |  |  |  |  |  | 
 | 1.9 µg/mL (≈ 5.36 µM) | 7.8 µg/mL (≈ 22 µM) | 1.9 µg/mL (≈ 5.36 µM) | 1.9 µg/mL (≈ 5.36 µM) | 1.9 µg/mL (≈ 5.36 µM) | Cc1ccc(-n2cc(CN3C(=O)COc4ccc(Cl)cc43)nn2)cc1 |  | 3.9 µg/mL (≈ 11 µM) | 15.6 µg/mL (≈ 44 µM) | 7.8 µg/mL (≈ 22 µM) | 3.9 µg/mL (≈ 11 µM) | 3.9 µg/mL (≈ 11 µM) | 3.9 µg/mL (≈ 11 µM) | 3.9 µg/mL (≈ 11 µM) | 
